pIC50: −log10 of the molar value.
Tests used:
[1] = Effect of repeated administration on HbA1c in ZDF rats; format: in vivo, Zucker Diabetic Fatty rats; conditions: 1 mg/kg oral once daily, day 27 of administration, vehicle 4.4 ± 0.4, p < 0.05 vs. vehicle
Experimental: Zucker Diabetic Fatty rats (male, 7-week-old, CHARLES RIVER LABORATORIES JAPAN INC.), an animal model for type 2 diabetes, given a purified diet (5.9% fat diet, Oriental Yeast Co., Ltd.) were allocated to the vehicle group and the test compound groups so that no bias occurred in the plasma glucose and insulin levels, HbA1c levels and body weights. Repeated oral doses of the test compound (1 mg/kg/5 mL) were administered to the rats once daily at 3 hr before the dark period. A 0.5% aqueous methylcellulose solution was orally administered in the same manner to the rats of the vehicle group. On day 27 of administration, blood samples were collected from the tail vein and HbA1c level (%) was measured. Statistical analysis was performed by Dunnett's test. Values of p<0.05 were considered statistically significant.

[2] = target: T1, human PDHK1 (hPDHK1) (Homo sapiens, UniProt Q15118); test: Inhibitory action of PDHK1 activity in vitro (residual PDH activity after kinase reaction); format: biochemical; conditions: PDH/hPDHK1 complex, 45 min kinase reaction at room temperature
T1 construct: made in house; host or cells: Escherichia coli BL21(DE3), pET17b vector
T1 sequence (Q15118 29-436): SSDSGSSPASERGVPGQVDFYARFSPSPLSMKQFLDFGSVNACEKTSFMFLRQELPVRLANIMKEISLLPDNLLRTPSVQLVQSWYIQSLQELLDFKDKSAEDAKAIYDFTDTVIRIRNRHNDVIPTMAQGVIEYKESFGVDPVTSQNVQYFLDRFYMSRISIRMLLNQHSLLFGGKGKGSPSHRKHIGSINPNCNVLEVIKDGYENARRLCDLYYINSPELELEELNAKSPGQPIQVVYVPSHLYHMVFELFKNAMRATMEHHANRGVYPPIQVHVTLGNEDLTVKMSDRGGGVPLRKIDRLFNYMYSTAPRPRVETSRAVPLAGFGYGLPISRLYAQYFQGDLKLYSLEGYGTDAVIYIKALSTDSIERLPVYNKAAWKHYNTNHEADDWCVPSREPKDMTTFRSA
Experimental: The inhibitory action of PDHK activity was assessed indirectly by measuring the residual PDH activity after kinase reaction in the presence of a test compound.
In the case of human PDHK1 (hPDHK1, Genbank Accession No. L42450.1), a 1.3 kbp fragment encoding this protein was isolated from human liver cDNA by polymerase chain reaction (PCR). Modified hPDHK1 cDNA wherein FLAG-Tag sequence was added to the N terminus was prepared by PCR and cloned into a vector (pET17b-Novagen). The recombinant construct was transformed into Escherichia coli (DH5α-TOYOBO). The recombinant clones were identified, and plasmid DNA was isolated and subjected to the DNA sequence analysis. One clone which had the expected nucleic acid sequence was selected for expression work. […]
Then, 10 μL of substrates (5 mmol/L sodium pyruvate, 5 mmol/L Coenzyme A, 12 mmol/L NAD, 5 mmol/L thiamin pyrophosphate, diluted with buffer) were added. The mixture was incubated at room temperature for 90 min, and the residual PDH activity was measured.
2.5 The absorbance at 340 nm before and after PDH reaction was measured using a microplate reader to detect NADH produced by the PDH reaction. The hPDHK1 inhibition rate (%) of the test compound was calculated from the formula [{(PDH activity of the test compound−PDH activity of control)/PDH activity of blank−PDH activity of control)}×100].

- pIC50 [2]: 8.29
Compound: C[C@H](O)COc1cc(-c2cnn(C(C)(C)C(N)=O)c2)c2c(c1)[C@@](O)(C(F)(F)F)c1ccccc1-2 [compound (2), 2-(4-{(9R)-9-hydroxy-2-[(2S)-2-hydroxypropoxy]-9-(trifluoromethyl)-9H-fluoren-4-yl}-1H-pyrazol-1-yl)-2-methylpropanamide]
- HbA1c (%) [1]: 3.9 ± 0.5 %

Source: patent US20150018403A1, “FLUORENE-AMIDE COMPOUNDS AND PHARMACEUTICAL USE THEREOF” (JAPAN TOBACCO INC., priority 2013, published 2015)
